Laboratory results reported in ChEMBL document CHEMBL1201862, “PubChem BioAssay data set” (2004).
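48-hour exposure; five concentrations; linearly interpolated endpoints. Abbreviation: GI50, concentration required for 50% inhibition of growth.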 The source made the active and inactive calls. Rule as the data show it: active = GI50 up to about 1.1 µM and inactive = higher.

Assays:
Test in all cases: NCI anticancer screen, dose series, 48 h
[1] = system: HCT-15
[2] = system: U-251
[3] = system: HCT-116
[4] = system: SK-MEL-28
[5] = system: HCC 2998
[6] = system: RXF 393
[7] = system: MDA-MB-435
[8] = system: MDA-N
[9] = system: T47D
[10] = system: NCI-H460
[11] = system: PC-3
[12] = system: NCI-H23
[13] = system: KM12
[14] = system: NCI/ADR-RES
[15] = system: CAKI-1
[16] = system: A549
[17] = system: SK-MEL-2
[18] = system: HOP-92
[19] = system: BT-549

Row | Compound | GI50 [1] [µM] | GI50 [2] | GI50 [3] | GI50 [4] | GI50 [5] | GI50 [6] | GI50 [7] | GI50 [8] | GI50 [9] | GI50 [10] | GI50 [11] | GI50 [12] | GI50 [13] | GI50 [14] | GI50 [15] | GI50 [16] | GI50 [17] | GI50 [18] | GI50 [19]
1 | O=C(CN1CCCCC1)c1ccc2c(c1)Sc1ccccc1O2 | 11 | 15.5 µM (inactive) | 14.4 µM (inactive) | 18.7 µM (inactive) | 15.5 µM (inactive) | 4.12 µM (inactive) | 14.5 µM (inactive) | 15.8 µM (inactive) | 22.8 µM (inactive) | 14.1 µM (inactive) | 11.6 µM (inactive) | 13.1 µM (inactive) | 16 µM (inactive) | 16.7 µM (inactive) | 18.3 µM (inactive) | 14.2 µM (inactive) | 18.7 µM (inactive) | 7.64 µM (inactive) | 
2 | CC(=O)O[C@H]1CC2C(C3CCC(C(C)CCC(N)=O)[C@]31C)[C@H](OC(C)=O)C[C@@H]1CC3(CC[C@]21C)OOC1(CC[C@]2(C)C4C[C@H](OC(C)=O)[C@]5(C)C(C(C)CCC(N)=O)CCC5C4[C@H](OC(C)=O)C[C@@H]2C1)OO3 (stereo partly drawn) | 1.48 | 1.6 µM (inactive) | 1.33 µM (inactive) |  | 0.966 µM (active) | 1.61 µM (inactive) | 1.4 µM (inactive) | 1.65 µM (inactive) |  | 1.69 µM (inactive) | 1.41 µM (inactive) | 1.49 µM (inactive) | 1.66 µM (inactive) | 2.09 µM (inactive) | 1.88 µM (inactive) | 1.43 µM (inactive) | 1.84 µM (inactive) |  | 1.2 µM (inactive)
3 | CC(C)(C)/N=C1\C(=O)C2(C)CCC1C2(C)C (stereo not drawn) | > 100 | > 100 µM (inactive) | > 100 µM (inactive) | > 100 µM (inactive) | > 100 µM (inactive) | > 100 µM (inactive) | > 100 µM (inactive) |  | > 100 µM (inactive) | > 100 µM (inactive) | > 100 µM (inactive) | > 100 µM (inactive) | > 100 µM (inactive) | > 100 µM (inactive) | > 100 µM (inactive) | > 100 µM (inactive) | > 100 µM (inactive) |  | > 100 µM (inactive)
4 | CC(C)COP(C)(=O)C(N)(C(F)(F)F)C(F)(F)F (stereo not drawn) | > 100 | > 100 µM (inactive) | > 100 µM (inactive) | > 100 µM (inactive) | > 100 µM (inactive) |  | > 100 µM (inactive) | > 100 µM (inactive) | > 100 µM (inactive) |  | > 100 µM (inactive) | > 100 µM (inactive) | > 100 µM (inactive) | > 100 µM (inactive) | > 100 µM (inactive) | > 100 µM (inactive) | > 100 µM (inactive) | > 100 µM (inactive) | 
5 | CC1=C(N2CC2)C(=O)c2ccccc2C1=O | 1.05 | 0.895 µM (active) | 1.37 µM (inactive) | 1.85 µM (inactive) |  | 0.422 µM (active) | 1.51 µM (inactive) |  | 13.1 µM (inactive) | 0.454 µM (active) | 0.897 µM (active) |  | 1.13 µM (inactive) | 1.06 µM (active) | 0.556 µM (active) | 0.566 µM (active) | 1.54 µM (inactive) |  | 
6 | COc1ccc(NC(=O)CC(=O)N2N=C(C)C(/N=N/c3ccc(C(=O)O)cc3)C2=O)cc1 (stereo not drawn) | > 100 | > 100 µM (inactive) | > 100 µM (inactive) | > 100 µM (inactive) | > 100 µM (inactive) | > 100 µM (inactive) | > 100 µM (inactive) | > 100 µM (inactive) | > 100 µM (inactive) | > 100 µM (inactive) | > 100 µM (inactive) | > 100 µM (inactive) | 71.8 µM (inactive) | > 100 µM (inactive) | > 100 µM (inactive) | > 100 µM (inactive) | > 100 µM (inactive) | > 100 µM (inactive) | 
7 | CC(C)OCC(O)COc1ccc2ccc(=O)oc2c1 (stereo not drawn) | > 100 | > 100 µM (inactive) | > 100 µM (inactive) | > 100 µM (inactive) | > 100 µM (inactive) |  | > 100 µM (inactive) | > 100 µM (inactive) | > 100 µM (inactive) | > 100 µM (inactive) | > 100 µM (inactive) | > 100 µM (inactive) | > 100 µM (inactive) | > 100 µM (inactive) | > 100 µM (inactive) | > 100 µM (inactive) |  | > 100 µM (inactive) | 
8 | O=C1NCC2(CCNCC2)N1c1ccccc1 | > 100 | > 100 µM (inactive) | > 100 µM (inactive) | > 100 µM (inactive) | > 100 µM (inactive) | > 100 µM (inactive) | > 100 µM (inactive) | > 100 µM (inactive) | > 100 µM (inactive) | > 100 µM (inactive) | > 100 µM (inactive) | > 100 µM (inactive) | > 100 µM (inactive) | > 100 µM (inactive) | > 100 µM (inactive) | > 100 µM (inactive) | > 100 µM (inactive) | > 100 µM (inactive) | 
